Holding throughout (type): cell-based
One data set relates to A549 (lung cancer). Description: Sulphorhodamine B cytotoxicity test, A549 line. The following applies: for IC50: Homo sapiens. The protocol:
(§1) Cytotoxic activity tests were performed using the following cancer cell lines: MCF-7 (breast cancer), HeLa (cervical cancer) A549 (pulmonary cancer) and KB (nasopharynx cancer) obtained from ECACC (European Collection of Cell Cultures). Cytotoxicity tests were carried out using a standard procedure with sulphorhodamine B. They involved incubation of the cancer cell lines in the logarithmic growth phase for 72 hours with the compound tested and, subsequently, spectrophotometric determination of the degree of cell growth inhibition using adsorption of a dye (sulphorhodamine B) which binds cellular proteins. The determination was carried out according to a procedure reported in: Vichai, V., Kirtikara, K. Nature Protocols, 2006, 1, 1112. […] Solutions of the test compounds were prepared in DMSO in the following concentration range: 0.05; 0.1; 0.5; 1; 5; 10; 50; 100 μM. The cells of the lines tested were treated with the solutions of the test compounds in a laminar-flow chamber which ensured sterile working conditions according to the following procedure: the first three wells were used as a control: they contained 20 μL of DMSO only; successive solutions of the test compound were added to subsequent wells (20 μL), starting with the lowest concentration (three wells for each concentration level). Subsequently, the plates were placed in an incubator for 72 hours. After the end of incubation, the adhered cells were fixed by adding 500 μL of cold (4° C.) 50% trichloroacetic acid (TCA) and incubated at 4° C. for 1 hour. Subsequently, each well was rinsed with sterile water and dried. The operation was repeated five times. The fixed cells were stained for 30 minutes by adding 500 μL of 0.4% of a dye solution (sulphorhodamine B) dissolved in 1% acetic acid. […] Subsequently, the plates were dried in air for approx. 5 minutes. Any unbound dye was dissolved by adding 1500 μL of […] Tris-base buffer (trishydroxymethylaminomethane) to each well and shaken using an orbital shaker for 5 minutes. […] Depending on the type of the cell line, the following growth media were used: • the MCF-7 line was grown in Dulbecco's Modified Eagle's Medium (DME) from Sigma (cat. no. […] R8758).
(In general: The SRB assay estimates cell density from bound dye.)

In a further data set the test system is KB (nasopharynx cancer). Description: Sulphorhodamine B cytotoxicity test, KB line. The following applies: for IC50: average of three determinations, read-out: Cytotoxic activity, IC50, KB (nasopharynx cancer). The protocol:
as §1

In a further data set the test system is MCF-7 (breast cancer). Description: Sulphorhodamine B cytotoxicity test, MCF-7 line. The following applies: for IC50: Homo sapiens, MCF7, 72 h incubation, SRB. The protocol: as §1
A further data set deals with HeLa (cervical cancer). Description: Sulphorhodamine B cytotoxicity test, HeLa line. The following applies: for IC50: Homo sapiens, HeLa. The protocol:
as §1

The test system of data set [1] is cancer cell lines of breast cancer, cervical cancer, lung cancer and nasopharynx cancer. Description: Sulphorhodamine B cytotoxicity test, cancer cell lines overall (line not specified). The protocol:
Cytotoxic activity tests were performed using the following cancer cell lines: MCF-7 (breast cancer), HeLa (cervical cancer) A549 (pulmonary cancer) and KB (nasopharynx cancer) obtained from ECACC (European Collection of Cell Cultures).
Cytotoxicity tests were carried out using a standard procedure with sulphorhodamine B. They involved incubation of the cancer cell lines in the logarithmic growth phase for 72 hours with the compound tested and, subsequently, spectrophotometric determination of the degree of cell growth inhibition using adsorption of a dye (sulphorhodamine B) which binds cellular proteins. The determination was carried out according to a procedure reported in: Vichai, V., Kirtikara, K. Nature Protocols, 2006, 1, 1112.
Cancerous cells of the cell line tested in the logarithmic growth phase were seeded onto 24-well plates in a quantity of 20,000 cells/2 mL of the growth medium per well and, subsequently, incubated in an incubator at 37° C., in the 5% CO2 atmosphere for 24 hours. […]
After the end of incubation, the adhered cells were fixed by adding 500 μL of cold (4° C.) 50% trichloroacetic acid (TCA) and incubated at 4° C. for 1 hour. […] Subsequently, 200 μL of solution from each well was transferred to each of two wells on a new 96-well plate and absorption of the solutions was determined spectrophotometrically at a wavelength of 490-530 nm using a plate reader. […]

The mark [2] stands for this setting: A549, 72 h incubation, SRB, average of three determinations, read-out: Cytotoxic activity, IC50, A549 (lung cancer).
[3] abbreviates: average of three determinations, read-out: Cytotoxic activity, IC50, MCF-7 line (breast cancer).
Setting [4] is: 72 h incubation, SRB, average of three determinations, read-out: Cytotoxic activity, IC50, HeLa (cervical cancer).

Converted amounts (≈) assume the structure as drawn. “And” between values parts separate entries of the source, which are not always exact repeats. Identical values can stand only once. Like-named read-outs stand apart in the source and are kept apart here.

For `O=c1[nH]cc(F)c(=O)[nH]1` [5-fluorouracil], the IC50 in the data set on A549 (lung cancer) (setting [2]) was 2.78 µg/mL and 21.4 µM; in the data set on KB (nasopharynx cancer) (72 h incubation, SRB) it was 2.86 µg/mL and 22 µM; with MCF-7 (breast cancer) (setting [3]), 2.37 µg/mL and 18.2 µM; in the data set on HeLa (cervical cancer) (setting [4]) it was 2.73 µg/mL and 21 µM.

Consider `C#CCO[C@@H](c1ccnc2ccccc12)[C@H]1C[C@@H]2CCN1C[C@@H]2C=C` [PCN, 9-O-propargylcinchonine], for which, in data set [1], the “in vitro cytotoxicity against cancer cell lines” value is listed as “within the range of high activity”. For the same compound, the “times as cytotoxic as 5FU” value with A549 (lung cancer) (A549 (pulmonary cancer), relative to 5FU) is on record as “more than 1.8 times”; in the data set with MCF-7 (breast cancer) (MCF-7 line, relative to 5FU), “more than two times”; in the data set with HeLa (cervical cancer) (HeLa (cervical cancer), relative to 5FU) it was “two times”. Moreover, the “cytotoxicity compared with 5 FdU” value in the data set on A549 (lung cancer) (A549 (pulmonary cancer), relative to 5 FdU) was “slightly more cytotoxic”. The “Cytotoxic activity class, KB (nasopharynx cancer)” value in the data set with KB (nasopharynx cancer) (72 h incubation, SRB) is given as “(A) (IC50<4 μg/mL are generally assumed as active (abbreviated as A))”. In addition, the “times as high activity compared to 5FU” value in the data set with KB (nasopharynx cancer) (KB (nasopharynx cancer), relative to 5FU) is recorded as 2.3 times. Further, the “times as high activity compared to 5 FdU” value with KB (nasopharynx cancer) (KB (nasopharynx cancer), relative to 5 FdU) was determined as 1.4 times. Also, in the data set on MCF-7 (breast cancer) (MCF-7 line, relative to 5 FdU), the “times as active as 5 FdU” value came out at 1.3 times. Besides, the “times as cytotoxic as 5 FdU” value with HeLa (cervical cancer) (HeLa (cervical cancer), relative to 5 FdU) was 1.2 times.

Consider `C=C[C@H]1C[N@@]2CC[C@H]1C[C@@H]2[C@@H](O)c1ccnc2ccccc12` [cinchonine], for which the IC50 fell in the range of 4 to 30 µg/mL (≈ 13.6 to 102 µM) with A549 (lung cancer) (A549, 72 h, read-out: Cytotoxic activity class, A549 (lung cancer)); 4 to 30 µg/mL (≈ 13.6 to 102 µM) with MCF-7 (breast cancer) (read-out: Cytotoxic activity class, MCF-7 line (breast cancer)); 4 to 30 µg/mL (≈ 13.6 to 102 µM) in the data set with HeLa (cervical cancer) (72 h, read-out: Cytotoxic activity class, HeLa (cervical cancer)).

Turning to `O=c1[nH]c(=O)n([C@H]2C[C@H](O)[C@@H](CO)O2)cc1F` [5-fluoro-2′-deoxyuridine], the IC50 in the data set with A549 (lung cancer) (setting [2]) is 3.3 µg/mL and 13.4 µM; in the data set with KB (nasopharynx cancer) (72 h incubation, SRB) it was 3.37 µg/mL and 13.7 µM; with MCF-7 (breast cancer) (setting [3]), 2.81 µg/mL and 11.4 µM; with HeLa (cervical cancer) (setting [4]), 3.2 µg/mL and 13 µM.
